Earlier results as cited in US20230330042A1, “FORMULATION FOR ORAL ADMINISTRATION” (NIPPON ZOKI PHARMACEUTICAL CO., LTD., priority 2020, published 2023).
Like-named read-outs stand apart in the source and are kept apart here.

Columns and labels:
Serotonin reuptake = Serotonin reuptake (Homo sapiens, UniProt P31645); details: read-out: Ki Serotonin
Noradrenaline reuptake = Noradrenaline reuptake (Homo sapiens, UniProt P23975)
κ-opioid receptor = κ-opioid receptor (Homo sapiens, UniProt P41145); details: read-out: Ki κ
Chain of κ-opioid receptor (P41145 whole entry): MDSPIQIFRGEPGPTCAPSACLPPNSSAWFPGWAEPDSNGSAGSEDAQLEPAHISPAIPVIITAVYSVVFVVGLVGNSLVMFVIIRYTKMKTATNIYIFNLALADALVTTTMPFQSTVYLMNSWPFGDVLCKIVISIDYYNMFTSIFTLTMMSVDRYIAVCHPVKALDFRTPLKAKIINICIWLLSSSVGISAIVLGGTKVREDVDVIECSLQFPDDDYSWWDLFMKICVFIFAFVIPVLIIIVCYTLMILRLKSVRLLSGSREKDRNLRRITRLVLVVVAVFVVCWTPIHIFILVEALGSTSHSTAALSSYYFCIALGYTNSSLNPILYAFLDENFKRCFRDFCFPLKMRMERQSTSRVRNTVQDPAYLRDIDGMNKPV

[1] = in vivo
δ-opioid receptor = δ-opioid receptor (Homo sapiens, UniProt P41143); details: read-out: Ki δ; Mean value (n = 2-3)
Chain of δ-opioid receptor (P41143 whole entry): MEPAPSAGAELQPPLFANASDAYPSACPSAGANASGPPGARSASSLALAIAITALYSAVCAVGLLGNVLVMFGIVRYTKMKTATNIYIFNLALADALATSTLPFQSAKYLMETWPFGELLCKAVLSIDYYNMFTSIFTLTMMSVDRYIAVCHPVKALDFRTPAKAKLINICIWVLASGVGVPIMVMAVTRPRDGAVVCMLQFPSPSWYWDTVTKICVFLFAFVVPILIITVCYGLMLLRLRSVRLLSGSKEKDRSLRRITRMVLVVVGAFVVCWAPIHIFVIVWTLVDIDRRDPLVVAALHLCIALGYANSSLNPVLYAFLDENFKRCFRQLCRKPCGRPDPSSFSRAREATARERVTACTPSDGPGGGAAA

μ-opioid receptor = μ-opioid receptor (Homo sapiens, UniProt P35372); details: read-out: Ki μ; Mean value (n = 2-3)
Chain of μ-opioid receptor (P35372 whole entry, species assumed): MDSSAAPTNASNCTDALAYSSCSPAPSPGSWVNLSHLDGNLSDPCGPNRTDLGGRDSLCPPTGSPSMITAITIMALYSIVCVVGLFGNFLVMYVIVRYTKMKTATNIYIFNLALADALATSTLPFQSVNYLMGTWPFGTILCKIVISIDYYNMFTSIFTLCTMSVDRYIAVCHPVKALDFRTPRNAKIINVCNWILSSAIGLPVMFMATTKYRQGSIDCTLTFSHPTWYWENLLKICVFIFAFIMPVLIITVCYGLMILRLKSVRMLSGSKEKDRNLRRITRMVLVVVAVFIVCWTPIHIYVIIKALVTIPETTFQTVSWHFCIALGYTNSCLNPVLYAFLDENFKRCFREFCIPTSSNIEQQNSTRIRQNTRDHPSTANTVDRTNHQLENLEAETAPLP

[2] = read-out: Ki Noradrenaline; Mean value (n = 2-3); NA: no activity at 10 μmol/L
[3] = Mean value (n = 2-3); NA: no activity at 10 μmol/L; read-out: Ki Noradrenaline

Chain of Noradrenaline reuptake (P23975 whole entry): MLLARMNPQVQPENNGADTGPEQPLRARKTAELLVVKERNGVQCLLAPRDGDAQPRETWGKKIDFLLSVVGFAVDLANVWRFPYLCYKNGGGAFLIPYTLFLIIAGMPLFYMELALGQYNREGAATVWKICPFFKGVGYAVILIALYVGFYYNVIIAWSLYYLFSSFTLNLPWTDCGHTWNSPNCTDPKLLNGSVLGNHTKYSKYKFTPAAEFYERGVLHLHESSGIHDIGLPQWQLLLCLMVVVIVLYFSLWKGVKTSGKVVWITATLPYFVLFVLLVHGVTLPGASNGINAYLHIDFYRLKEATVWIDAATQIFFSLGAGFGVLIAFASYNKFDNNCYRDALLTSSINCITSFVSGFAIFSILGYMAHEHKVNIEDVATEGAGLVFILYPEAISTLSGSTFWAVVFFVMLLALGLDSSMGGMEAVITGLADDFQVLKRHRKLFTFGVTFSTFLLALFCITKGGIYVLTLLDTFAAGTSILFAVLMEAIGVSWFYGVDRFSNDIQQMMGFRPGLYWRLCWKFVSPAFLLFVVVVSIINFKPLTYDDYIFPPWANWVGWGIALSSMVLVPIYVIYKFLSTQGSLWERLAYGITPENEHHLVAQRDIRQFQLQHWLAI
Chain of Serotonin reuptake (P31645 whole entry): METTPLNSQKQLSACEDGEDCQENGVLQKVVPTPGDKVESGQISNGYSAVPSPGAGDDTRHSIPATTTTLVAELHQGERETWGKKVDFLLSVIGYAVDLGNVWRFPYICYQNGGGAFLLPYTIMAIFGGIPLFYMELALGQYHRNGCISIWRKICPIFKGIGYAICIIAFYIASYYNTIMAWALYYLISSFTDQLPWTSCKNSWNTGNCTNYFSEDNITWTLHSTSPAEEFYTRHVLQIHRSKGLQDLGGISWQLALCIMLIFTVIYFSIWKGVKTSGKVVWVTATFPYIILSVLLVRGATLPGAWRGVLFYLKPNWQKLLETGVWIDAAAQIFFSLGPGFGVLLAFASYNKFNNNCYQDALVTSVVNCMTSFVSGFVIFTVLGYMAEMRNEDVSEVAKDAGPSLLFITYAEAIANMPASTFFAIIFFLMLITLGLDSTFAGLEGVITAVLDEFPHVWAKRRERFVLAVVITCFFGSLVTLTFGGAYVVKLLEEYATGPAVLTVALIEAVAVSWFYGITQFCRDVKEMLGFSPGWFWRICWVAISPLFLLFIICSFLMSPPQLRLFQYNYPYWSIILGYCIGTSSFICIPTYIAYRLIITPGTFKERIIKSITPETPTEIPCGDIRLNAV

Structure (SMILES) | Ki (κ-opioid receptor; Mean value (n = 2-3)) [µM] | Ki (Noradrenaline reuptake; [3]) [µM] | Ki (δ-opioid receptor) [µM] | Ki (κ-opioid receptor) [µM] | further results
COc1ccc2c3c1O[C@H]1[C@@H](O)C=C[C@H]4[C@@H](C2)N(C)CC[C@@]341 [Codeine] |  |  |  |  | Ki (Serotonin reuptake): > 10 µM; Ki (Noradrenaline reuptake; [2]): > 10 µM
CN(C)CC1CCCCC1(O)c1cccc(O)c1 (racemic) [(±)-M1, O-desmethyltramadol] | 0.242 | 1.52 |  |  | half-life ([1]; po): 6 to 7 h
COc1cccc([C@@]2(O)CCCC[C@@H]2CN(C)C)c1 (racemic) [(±)-Tramadol, (1RS,2RS)-2-[(dimethylamino)methyl]-1-(3-methoxyphenyl)cyclohexanol] |  |  | 57.7 | 42.7 | Ki (Noradrenaline reuptake; [2]): 0.785 µM; unchanged tramadol and metabolites excreted through the kidney [1]: about 90%; half-life ([1]; po): 5 to 6 h; time after administration at which the maximum drug concentration is reached ([1]; po): 1.6 to 1.9 h; time at which the maximum concentration in the brain is reached ([1]; po): 10 min
COc1cccc(C2(O)CCCCC2CN(C)C)c1 (single isomer, unassigned; (+)) [(+)-Tramadol, (+)-tramadol] |  | 2.51 | 6.24 | 54 | 
CN(C)CC1CCCCC1(O)c1cccc(O)c1 (single isomer, unassigned; (+)) [(+)-M1] | 0.706 | 14.4 | 0.594 |  | 
CN(C)CCCN1c2ccccc2CCc2ccccc21 [Imipramine] |  |  | 12.7 |  | Ki (μ-opioid receptor): 3.73 µM
CN(C)CC1CCCCC1(O)c1cccc(O)c1 (single isomer, unassigned; (-)) [(−)-M1] | 32.9 | 0.857 | 30.5 |  | 
COc1cccc(C2(O)CCCCC2CN(C)C)c1 (single isomer, unassigned; (-)) [(−)-Tramadol, (−)-tramadol] |  | 0.432 | 213 | 53.5 | 
